What all share (format): in vivo
The subject of assay [1] is Beet Armyworm (Spodoptera exigua, LAPHEG). Briefly: Bioassay on Beet Armyworm (BAW), 128-well diet tray assay. In outline:
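Second-instar larvae, one to five per well, placed on artificial diet surface-treated with 50 μg/cm^2 compound applied in 90:10 acetone-water and dried. Held 5–7 days at 25° C., 14:10 light-dark. Percent mortality recorded per well and averaged over eight wells.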

Assay [2] deals with Cabbage Looper (Trichoplusia ni, TRIPNI). Kind of assay: Bioassay on Cabbage Looper (CL), 128-well diet tray assay. To be noted: Trichoplusia ni. In outline:
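Diet-incorporation-free surface assay: 50 μg/cm^2 compound in acetone-water (90:10), dried on diet; 1–5 2nd-instar larvae/well; 8 wells; vented cover; 25° C., 14:10 L:D, 5–7 d; % mortality averaged over wells.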

In assay [3] the test system is Yellow Fever Mosquito (Aedes aegypti, AEDSAE). Kind of assay: Bioassay on Yellow Fever Mosquito (YFM), 96-well plate larval assay. As to conditions: for YFM rating: Yellow Fever Mosquito, 96-well plate larval assay; for YFM (Biological Results, rating): Species YFM (Yellow Fever Mosquito). In short, it runs like this:
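Compound stocks at 4000 ppm in DMSO were diluted with 90:10 water/acetone, and 15 μL aliquots were dispensed into six replicate plates. About 1-day-old larvae in liver-powder water were added per well. Plates were covered and held at room temperature for 3 days before each well was scored for mortality.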

The mark [4] stands for this setting: Beet Armyworm, 128-well diet tray assay, read-out: BAW rating.
The mark [5] stands for this setting: Cabbage Looper, 128-well diet tray assay, read-out: CL rating.
The mark [6] stands for this setting: Species BAW (Beet Armyworm), read-out: BAW (Biological Results, rating).
Where [7] appears, read: Species CL (Cabbage Looper), read-out: CL (Biological Results, rating).

SMILES strings stand for the structures. Where two headings read alike, the source gives them in different places.

Regarding `COc1ccc(NC(=O)c2cc(NC(=O)[C@H]3[C@H](c4ccc(F)c(Cl)c4)C3(Cl)Cl)ccc2Cl)c(Cl)n1` (relative stereo) [F553, 2-Chloro-N-(2-chloro-6-methoxypyridin-3-yl)-5-(trans-2,2-dichloro-3-(3-chloro-4-fluorophenyl)cyclopropane-1-carboxamido)benzamide], the pest or weed control at 50 µg/cm2 in assay [1] (setting [4]) and in assay [2] (setting [5]) was 50 to 100% throughout. For the same compound, the YFM rating entry in assay [3] is listed as “A (80-100)”.

`CN(C(=O)c1cc(NC(=O)[C@H]2[C@H](c3ccc(Br)c(Cl)c3)C2(Cl)Cl)ccc1Cl)c1ccc(F)cc1` (relative stereo) [F307, 5-(trans-3-(4-Bromo-3-chlorophenyl)-2,2-dichlorocyclopropane-1-carboxamido)-2-chloro-N-(4-fluorophenyl)-N-methylbenzamide]: the pest or weed control at 50 µg/cm2 in assay [1] (setting [6]) and in assay [2] (setting [7]) was 50 to 100% each time. The “YFM (Biological Results, rating)” value in assay [3] is reported as “A (80-100)”.

`O=C(Nc1ccnc(Cl)c1)c1cc(NC(=O)[C@H]2[C@H](c3cc(Cl)cc(Cl)c3)C2(Cl)Cl)ccc1Cl` [F368, 2-Chloro-N-(2-chloropyridin-4-yl)-5-((1R,3R)-2,2-dichloro-3-(3,5-dichlorophenyl)cyclopropane-1-carboxamido)benzamide]: the pest or weed control at 50 µg/cm2 in assay [1] (setting [6]) and in assay [2] (setting [7]) was 50 to 100% throughout. Also, in assay [3], the “YFM (Biological Results, rating)” value is recorded as “A (80-100)”.

As to `COc1nccc(NC(=O)c2cc(NC(=O)[C@H]3[C@H](c4cc(Cl)cc(Cl)c4)C3(Cl)Cl)ccc2Cl)c1Cl` (relative stereo) [F546, 2-Chloro-N-(3-chloro-2-methoxypyridin-4-yl)-5-(trans-2,2-dichloro-3-(3,5-dichlorophenyl)cyclopropane-1-carboxamido)benzamide], the pest or weed control at 50 µg/cm2 in assay [1] (setting [4]) and in assay [2] (setting [5]) was 50 to 100% in each case. Moreover, the YFM rating result in assay [3] is “A (80-100)”.

Take `CN(C(=O)c1cc(NC(=O)[C@H]2[C@H](c3cc(Cl)cc(Cl)c3)C2(Cl)Cl)ccc1F)c1ccc(F)cc1F` (relative stereo) [F63, trans-5-(2,2-Dichloro-3-(3,5-dichlorophenyl)cyclopropane-1-carboxamido)-N-(2,4-difluorophenyl)-2-fluoro-N-methylbenzamide]: the pest or weed control at 50 µg/cm2 in assay [1] (setting [6]) and in assay [2] (setting [7]) was 50 to 100% each time. Also, the “YFM (Biological Results, rating)” value in assay [3] is recorded as “A (80-100)”.

As to `Cc1cc(NC(=O)c2cc(NC(=O)[C@H]3[C@H](c4cc(Cl)cc(Cl)c4)C3(Cl)Cl)ccc2Cl)ccc1Cl` (relative stereo) [PF113, trans-2-Chloro-N-(4-chloro-3-methylphenyl)-5-(2,2-dichloro-3-(3,5-dichlorophenyl)cyclopropane-1-carboxamido)benzamide], the pest or weed control at 50 µg/cm2 in assay [1] (setting [4]) and in assay [2] (setting [5]) was 50 to 100% in each case. In addition, in assay [3], the YFM rating entry was “A (80-100)”.

Consider `Cc1cc(N)ccc1NC(=O)c1cccc(NC(=O)[C@H]2[C@H](c3cc(Cl)c(Cl)c(Cl)c3)C2(Cl)Cl)c1` (relative stereo) [F264, trans-N-(4-Amino-2-methylphenyl)-3-(2,2-dichloro-3-(3,4,5-trichlorophenyl)cyclopropane-1-carboxamido)benzamide], for which the pest or weed control at 50 µg/cm2 in assay [1] (setting [6]) and in assay [2] (setting [7]) was 50 to 100% in each case. Also, the “YFM (Biological Results, rating)” value in assay [3] is given as “A (80-100)”.

As to `COc1cc(NC(=O)c2cc(NC(=O)C3C(c4cc(Cl)cc(Cl)c4)C3(Cl)Cl)ccc2Cl)ccc1Cl` (stereo not drawn) [PF114, 2-Chloro-N-(4-chloro-3-methoxyphenyl)-5-(trans)-2,2-dichloro-3-(3,5-dichlorophenyl)cyclopropane-1-carboxamido)benzamide], the pest or weed control at 50 µg/cm2 in assay [1] (setting [4]) and in assay [2] (setting [5]) was 50 to 100% each time. In assay [3], the YFM rating result was “A (80-100)”.

Consider `O=C(Nc1cccc2[nH]ccc12)c1cc(NC(=O)[C@H]2[C@H](c3cc(Cl)cc(Cl)c3)C2(Cl)Cl)ccc1Cl` (relative stereo) [F528, 2-Chloro-5-(trans)-(2,2-dichloro-3-(3,5-dichlorophenyl)cyclopropane-1-carboxamido)-N-(1H-indol-4-yl)benzamide], for which the pest or weed control at 50 µg/cm2 in assay [1] (setting [4]) and in assay [2] (setting [5]) was 50 to 100% each time. Also, the YFM rating entry in assay [3] is listed as “A (80-100)”.

Turning to `CN1C(=O)Cc2cc(NC(=O)c3cc(NC(=O)[C@H]4[C@H](c5cc(Cl)cc(Cl)c5)C4(Cl)Cl)ccc3Cl)ccc21` (relative stereo) [F459, 2-Chloro-5-(trans)-(2,2-dichloro-3-(3,5-dichlorophenyl)cyclopropane-1-carboxamido)-N-(1-methyl-2-oxoindolin-5-yl)benzamide], the pest or weed control at 50 µg/cm2 in assay [1] (setting [4]) and in assay [2] (setting [5]) was 50 to 100% throughout. Moreover, the YFM rating entry in assay [3] is listed as “A (80-100)”.

Turning to `O=C(Nc1cncc([N+](=O)[O-])c1)c1cc(NC(=O)[C@H]2[C@H](c3ccc(Cl)c(Cl)c3)C2(Cl)Cl)ccc1Cl` [F359, 2-Chloro-5-((1R,3R)-2,2-dichloro-3-(3,4-dichlorophenyl)cyclopropane-1-carboxamido)-N-(5-nitropyridin-3-yl)benzamide], the pest or weed control at 50 µg/cm2 in assay [1] (setting [6]) and in assay [2] (setting [7]) was 50 to 100% throughout. Besides, the “YFM (Biological Results, rating)” value in assay [3] was “A (80-100)”.

Consider `CNc1cccc(NC(=O)c2cc(NC(=O)[C@H]3[C@H](c4cc(Cl)cc(Cl)c4)C3(Cl)Cl)ccc2Cl)c1` (relative stereo) [F202, trans-2-Chloro-5-(2,2-dichloro-3-(3,5-dichlorophenyl)cyclopropane-1-carboxamido)-N-(3-(methylamino)phenyl)benzamide], for which the pest or weed control at 50 µg/cm2 in assay [1] (setting [6]) and in assay [2] (setting [7]) was 50 to 100% each time. In addition, the “YFM (Biological Results, rating)” value in assay [3] is listed as “A (80-100)”.

Turning to `N#Cc1cc(Cl)cc(C2C(C(=O)Nc3ccc(Cl)c(C(=O)Nc4ccc(F)cc4F)c3)C2(Cl)Cl)c1` (stereo not drawn) [F188, 2-Chloro-5-(trans)-2,2-dichloro-3-(3-chloro-5-cyanophenyl)cyclopropane-1-carboxamido)-N-(2,4-difluorophenyl)benzamide], the pest or weed control at 50 µg/cm2 in assay [1] (setting [6]) and in assay [2] (setting [7]) was 50 to 100% each time. Moreover, the “YFM (Biological Results, rating)” value in assay [3] is recorded as “B (More than 0-Less than 80)”.

As to `Cn1ccc2cc(NC(=O)c3cc(NC(=O)C4C(c5cc(Cl)cc(Cl)c5)C4(Cl)Cl)ccc3Cl)ccc21` (stereo not drawn) [F457, 2-Chloro-5-(trans)-2,2-dichloro-3-(3,5-dichlorophenyl)cyclopropane-1-carboxamido)-N-(1-methyl-1H-indol-5-yl)benzamide], the pest or weed control at 50 µg/cm2 in assay [1] (setting [4]) and in assay [2] (setting [5]) was 50 to 100% each time. In assay [3], the YFM rating entry was “A (80-100)”.

On to `Nc1ccc(F)cc1NC(=O)c1cc(NC(=O)[C@H]2[C@H](c3cc(Cl)c(Cl)c(Cl)c3)C2(Cl)Cl)ccc1Cl` [F405, N-(2-Amino-5-fluorophenyl)-2-chloro-5-((1R,3R)-2,2-dichloro-3-(3,4,5-trichlorophenyl)cyclopropane-1-carboxamido)benzamide], for which the pest or weed control at 50 µg/cm2 in assay [1] (setting [4]) and in assay [2] (setting [5]) was 50 to 100% each time. The YFM rating entry in assay [3] is “A (80-100)”.

Regarding `O=C(Nc1cccc2cc[nH]c12)c1cc(NC(=O)[C@H]2[C@H](c3cc(Cl)cc(Cl)c3)C2(Cl)Cl)ccc1Cl` (relative stereo) [F529, 2-Chloro-5-(trans)-(2,2-dichloro-3-(3,5-dichlorophenyl)cyclopropane-1-carboxamido)-N-(1H-indol-7-yl)benzamide], the pest or weed control at 50 µg/cm2 in assay [1] (setting [4]) and in assay [2] (setting [5]) was 50 to 100% each time. Besides, the YFM rating result in assay [3] was “A (80-100)”.

Regarding `O=C(Nc1ccc(F)cc1[N+](=O)[O-])c1cc(NC(=O)[C@H]2[C@H](c3ccc(Cl)c(Cl)c3)C2(Cl)Cl)ccc1Cl` [F555, 2-Chloro-5-((1R,3R)-2,2-dichloro-3-(3,4-dichlorophenyl)cyclopropane-1-carboxamido)-N-(4-fluoro-2-nitrophenyl)benzamide], the pest or weed control at 50 µg/cm2 in assay [1] (setting [4]) and in assay [2] (setting [5]) was 50 to 100% in each case. Also, the YFM rating result in assay [3] is “A (80-100)”.

As to `CN(C)c1ccc(NC(=O)c2cc(NC(=O)[C@H]3[C@H](c4cc(Cl)cc(Cl)c4)C3(Cl)Cl)ccc2Cl)cc1` (relative stereo) [F171, trans-2-Chloro-5-(2,2-dichloro-3-(3,5-dichlorophenyl)cyclopropane-1-carboxamido)-N-(4-(dimethylamino)phenyl)benzamide], the pest or weed control at 50 µg/cm2 in assay [1] (setting [6]) and in assay [2] (setting [7]) was 50 to 100% each time. The “YFM (Biological Results, rating)” value in assay [3] was “A (80-100)”.

For `O=C(Nc1cc(F)c2cc[nH]c2c1)c1cc(NC(=O)C2C(c3cc(Cl)cc(Cl)c3)C2(Cl)Cl)ccc1Cl` (stereo not drawn) [F173, 2-Chloro-5-(trans)-2,2-dichloro-3-(3,5-dichlorophenyl)cyclopropane-1-carboxamido)-N-(4-fluoro-1H-indol-6-yl)benzamide], the pest or weed control at 50 µg/cm2 in assay [1] (setting [6]) and in assay [2] (setting [7]) was 50 to 100% throughout. For the same compound, the “YFM (Biological Results, rating)” value in assay [3] is listed as “B (More than 0-Less than 80)”.
